Several values for one entry are separate records, joined by “and”; a condition that tells them apart may be missing. Equal entries are not always repeated.
Key:
[1] = system: Nilaparvata lugens resistant population I; assay: Reference Test Example 19 Pest control test of Nilaparvata lugens, resistant population I (soil drench); format: in vivo; conditions: for Insecticidal effects against Nilaparvata lugens (death rate %), Resistant population I: soil drench, six days
Method: (§1) Three days after the treatment, ten second instar larvae of Nilaparvata lugens, which had been collected outdoors and proliferated indoors, were each released to the rice seedling. […] Test in duplicate.
(§2) Furthermore, for comparison, the test against a species of Nilaparvata lugens which is highly susceptible to imidacloprid was performed by the same method as described above, and the results thereof are shown in Table 45. […] Meanwhile, the death rates of imidacloprid at 0.05 mg/seedling were (susceptible species) 100%, (resistant population I) 38% and (resistant population II) 69%, and the insecticidal effect thereof was also low even at a high dose. From the above results, it became obvious that Compound P212 and Compound 1-20 have high insecticidal effects even against Nilaparvata lugens resistance against imidacloprid.
(§3) Further, for the origin of test pests, bugs collected outdoors from the Kumamoto prefecture (I) in 2007 and from the Fukuoka prefecture (II) in 2005 as resistant population of Nilaparvata lugens, and bugs collected from the Kagoshima prefecture and then successively reared indoors for a long time as the imidacloprid susceptible population of Nilaparvata lugens were used.

[2] = system: Trigonotylus caelestialium; assay: Reference Test Example 10 Pest control test of Trigonotylus caelestialium (dipping treatment); format: in vivo; conditions: 72 h
Method: After an air drying process, the wheat seedling leaves and stems were placed into a glass tube, and two second instar larvae of Trigonotylus coelestialium were released to the same glass tube. After the larvae were released, the tube was lidded to leave the larvae to stand in a thermostatic chamber at 25° C. In order to supply water to the wheat during the test, water was given to the wheat from the bottom of the glass tube. […] Test in triplicate.

[3] = system: Frankliniella occidentalis; assay: whole plant or invertebrate; conditions: Frankliniella occidentalis
Method: After an air drying process, first instar larvae were released thereto. Thereafter, the larvae were left to stand in a thermostatic chamber (16 hours of light period-8 hours of dark period) at 25° C. […] The test was performed in duplicate. Mortality of larvae (%)={number of dead larvae/(number of survived larvae+number of dead larvae)}×100
(A: 100−(mortality of larvae or adults when treated only with Compound P212)
B: 100−(mortality of larvae or adults when treated with only the insecticide imidacloprid, dinotefuran, or acetamiprid))
(§4) Method for Judging Synergistic Effects
When the mortality against Frankliniella occidentalis in the case of a mixture with another agent exceeded the theoretical value given by Colby's equation, a synergistic effect was judged to be present.

Plautia crossota stali = assay: Reference Test Example 11 Pest control test of Plautia crossota stali (sprayed young apple fruit); format: in vivo; conditions: foliar, 144 h
Source text: After an air drying process, the young fruit was placed into a plastic cup, and two adults of Plautia crossota stali were released thereto. […] Mortality of adults (%)={number of dead adults/(number of survived adults+number of dead adults)}×100

Nephotettix cincticeps = assay: Reference Test Example 7 Pest control test of Nephotettix cincticeps (foliar treatment, single agent); format: in vivo; conditions: 96 h
Source text: (§5) After an air drying process, second instar larvae were released thereto. […] Test in duplicate.

Sogatella furcifera = assay: Reference Test Example 6 Pest control test of Sogatella furcifera (foliar treatment, single agent); format: in vivo; conditions: 96 h
Source text: as §5

Plutella xylostella [4] = assay: whole plant or invertebrate; format: in vivo
Method: (§6) After an air drying process, second instar larvae were released thereto. […] The test was performed in duplicate.
as §4

Laodelphax striatella [5] = assay: whole plant or invertebrate; format: in vivo
Method: as §6, §4

Aphis gossypii [6] = assay: whole plant or invertebrate; format: in vivo; conditions: Aphis gossypii
Method: The test was performed in duplicate.
as §4

[7] = system: Frankliniella occidentalis; assay: Reference Test Example 9 Pest control test of Frankliniella occidentalis (foliar treatment, single agent); format: in vivo; conditions: 72 h
Method: After an air drying process, first instar larvae were released to the leaf disk. Thereafter, the larvae were left to stand in a thermostatic chamber (16 hours of light period-8 hours of dark period) at 25° C. […] Test in duplicate. Mortality of larvae (%)={number of dead larvae/(number of survived larvae+number of dead larvae)}×100

Callosobruchus chinensis = format: in vivo
Method: A compound of Formula (I) and the insecticide indicated below, prepared in predetermined concentrations using acetone, were separately topically applied to the back of the same adult Callosobruchus chinensis. […] The test was performed in duplicate. Insect mortality (%)={number of dead insects/(number of survived insects+number of dead insects)}×100
(A: 100−(insect mortality for treatment with only Compound P212)
B: 100−(insect mortality for treatment with only the insecticide fipronil or imidacloprid))
as §4

Aphis gossypii [8] = assay: Reference Test Example 3 Pest control test of Aphis gossypii (foliar treatment, single agent); format: in vivo; conditions: Aphis gossypii, foliar, 72 h
Method: After an air drying process, first instar larvae were released thereto. Thereafter, the larvae were left to stand in a thermostatic chamber (16 hours of light period-8 hours of dark period) at 25° C. […] Test in duplicate. Mortality (%)={number of dead larvae/(number of survived larvae+number of dead larvae)}×100

[9] = system: Lissorhoptrus oryzophilus; assay: Reference Test Example 17 Pest control test of Lissorhoptrus oryzophilus (soil drench, single agent); format: in vivo; conditions: throughput of 0.1 mg/seedling, adults, three days after the release
Source text: Two days after the treatment, five adults of Lissorhoptrus oryzophilus were each released thereto. […] Test in duplicate.

[10] = system: Nilaparvata lugens susceptible species (highly susceptible to imidacloprid); assay: Reference Test Example 19 Pest control test of Nilaparvata lugens, imidacloprid susceptible species (soil drench); format: in vivo; conditions: for Insecticidal effects against Nilaparvata lugens (death rate %), Susceptible population: soil drench, six days
Method: as §1, §2, §3

Spodoptera litura = assay: Reference Test Example 2 Pest control test of Spodoptera litura (foliar treatment, single agent); format: in vivo; conditions: 72 h
Source text: After an air drying process, third instar larvae were released thereto. […] Test in duplicate.

Plutella xylostella [11] = assay: Reference Test Example 1 Pest control test of Plutella xylostella (foliar treatment, single agent); format: in vivo; conditions: Plutella xylostella, foliar, 72 h
Source text: as §5

[12] = system: Trialeurodes vaporariorum; assay: Reference Test Example 8 Pest control test of Trialeurodes vaporariorum (leaf disk spray on eggs); format: in vivo; conditions: foliar
Source text: Adult greenhouse whiteflies were released to a cucumber in pot culture and allowed to lay eggs overnight. […] Test in duplicate. Mortality of larvae (%)={(number of eggs laid−number of survived larvae)/number of eggs laid)}×100

Laodelphax striatella [13] = assay: Reference Test Example 4 Pest control test of Laodelphax striatella (foliar treatment, single agent); format: in vivo; conditions: Laodelphax striatellus, 72 h
Source text: as §5

[14] = system: Nilaparvata lugens resistant population II; assay: Reference Test Example 19 Pest control test of Nilaparvata lugens, resistant population II (soil drench); format: in vivo; conditions: for Insecticidal effects against Nilaparvata lugens (death rate %), Resistant population II: soil drench, six days
Method: as §1, §2, §3

[15] = foliar, 72 h, read-out: Mortality of single agent against Frankliniella occidentalis

With `O=C(N=c1ccccn1Cc1ccc(Cl)nc1)C(F)(F)F` [Compound P212, N-[1-((6-chloropyridin-3-yl)methyl)pyridin-2(1H)-ylidene]-2,2,2-trifluoroacetamide] the “death rates of larvae” value ([1]; resistant population I, 0.005 mg/seedling, six days after the release) was 95%, the “Insecticidal effects against Nilaparvata lugens (death rate %), Resistant population I” value ([1]; throughput 0.005 mg/seedling) was 95% and the “Insecticidal effects against Nilaparvata lugens (death rate %), Resistant population I” value ([1]; throughput 0.05 mg/seedling) was 100%. For the same compound, the mortality at 50 ppm [2] was ≥ 80%, the mortality at 10 ppm [3, 15] was 69% and the mortality at 20 ppm [3, 15] was 70%. The “Theoretical value by Colby's equation” value ([3]; single agent 10 ppm (other component 0)) was 69%, the “Theoretical value by Colby's equation” value ([3]; single agent 20 ppm (other component 0)) was 70% and the mortality at 50 ppm (Plautia crossota stali) was ≥ 60%. The mortality at 100 ppm (Nephotettix cincticeps) was ≥ 80%, the mortality at 100 ppm (Sogatella furcifera) was ≥ 80% and the mortality at 1 ppm (Plutella xylostella [4]; Plutella xylostella, foliar, 72 h, read-out: Mortality of single agent against Plutella xylostella, single agent 1.0 ppm, cabbage leaf disk spray, three days) was 40%. For the same compound, the mortality at 1.25 ppm (Plutella xylostella [4]; Plutella xylostella, foliar, 72 h, read-out: Mortality of single agent against Plutella xylostella, single agent 1.25 ppm, cabbage leaf disk spray, three days) was 0%, the mortality at 2 ppm (Plutella xylostella [4]; Plutella xylostella, foliar, 72 h, read-out: Mortality of single agent against Plutella xylostella, single agent 2.0 ppm, cabbage leaf disk spray, three days) was 60% and the “Theoretical value by Colby's equation” value (Plutella xylostella [4]; Plutella xylostella, single agent 1.0 ppm (other component 0)) was 40% and 30%. The “Theoretical value by Colby's equation” value (Plutella xylostella [4]; Plutella xylostella, single agent 1.25 ppm (other component 0)) was 0%, the “Theoretical value by Colby's equation” value (Plutella xylostella [4]; Plutella xylostella, single agent 2.0 ppm (other component 0)) was 60% and 50% and the “Mortality of single agent against Plutella xylostella” value (Plutella xylostella [4]; single agent 1.0 ppm, cabbage leaf disk spray, three days) was 30%. The “Mortality of single agent against Plutella xylostella” value (Plutella xylostella [4]; single agent 2.0 ppm, cabbage leaf disk spray, three days) was 50%, the “Theoretical value by Colby's equation” value (Laodelphax striatella [5]; Laodelphax striatella foliar, single agent 0.625 ppm (other component 0)) was 95% and the mortality at 0.625 ppm (Laodelphax striatella [5]; Laodelphax striatellus, foliar, 72 h, read-out: Mortality of single agent against Laodelphax striatella) was 95%. The mortality at 0.313 ppm (Aphis gossypii [6]; foliar, 72 h, read-out: Mortality of single agent against Aphis gossypii) was 45%, the “Theoretical value by Colby's equation” value (Aphis gossypii [6]; single agent 0.313 ppm (other component 0)) was 45% and the mortality at 500 ppm [7] was ≥ 80%. The “Theoretical value by Colby's equation” value (Callosobruchus chinensis; Callosobruchus chinensis, single agent 0.2 ng/head (other component 0)) was 20%, the “Mortality of single agent against Callosobruchus chinensis” value (Callosobruchus chinensis; single agent 0.2 ng/head, topical, one day) was 20% and the mortality at 100 ppm (Aphis gossypii [8]) was ≥ 80%. The mortality [9] was ≥ 80%, the “death rates of larvae” value ([10]; susceptible species, 0.005 mg/seedling, six days after the release) was 100% and the “Insecticidal effects against Nilaparvata lugens (death rate %), Susceptible population” value ([10]; throughput 0.005 mg/seedling) was 100%. For the same compound, the “Insecticidal effects against Nilaparvata lugens (death rate %), Susceptible population” value ([10]; throughput 0.05 mg/seedling) was 100%, the mortality at 500 ppm (Spodoptera litura) was ≥ 80% and the mortality at 100 ppm (Plutella xylostella [11]) was ≥ 80%. The mortality at 100 ppm [12] was ≥ 80%, the mortality at 100 ppm (Laodelphax striatella [13]) was ≥ 80% and the “death rates of larvae” value ([14]; resistant population II, 0.005 mg/seedling, six days after the release) was 100%. For the same compound, the “Insecticidal effects against Nilaparvata lugens (death rate %), Resistant population II” value ([14]; throughput 0.005 mg/seedling) was 100% and the “Insecticidal effects against Nilaparvata lugens (death rate %), Resistant population II” value ([14]; throughput 0.05 mg/seedling) was 100%.

— patent US11771086B2, “Pest control composition including novel iminopyridine derivative” (priority 2012, dated 2023)
